The source of these data is patent US20140316007A1 (RICHTER GEDEON NYRT., priority 2011, published 2014).

Read-outs that look alike come from different tables or passages of the source.

Data set [1] is described as follows: mouse diet-induced obesity (DIO) test, weight loss. The format is in vivo. The note with it: two weeks, obese C57B16 mice. The method, then: The experiments were performed using a diet-induced obesity (DIO) test. The DIO test is a widely accepted animal model of human obesity well mimicking the development and course of the disease, its comorbidities as well as its response to pharmacological medications (Hariri and Thibault Nutr. Res. Rev. 23:270-299 2010). Young (22-25 g) male C57B16 mice were fed with high-fat diet (e.g. D12492, Research Diets Inc., New Brunswick, N.J., USA), thus these animals became obese compared to mice kept on a control diet. The body weights of control and obese mice were 31.84±0.89 and 45.74±0.78 g, respectively, in the first experiment (n=8 per group, mean±SEM). These values were 30.47±0.58 and 45.38±0.61 g (n=20 per group) in the second experiment, and 27.61±0.34 and 41.00±0.91 (n=8 per group) in the third experiment (Study 2). Then the animals were assigned to different groups and treated with different vehicles or test compounds. Test compounds were dissolved in water and administered per os twice daily in a volume of 10 ml/kg of body weight. The animals were weighed daily during the experiments. The percent weight loss of each animal compared the baseline body weight was calculated at the end of the two-week-long experiment. The average percent weight change of the vehicle group was subtracted from the percent weight change of each animal, thus the vehicle-corrected weight loss was calculated. The statistical evaluation of results included descriptive statistics (mean and standard error). Furthermore, statistical significance of differences between groups was evaluated using one-way or factorial ANOVA test followed by Duncan's post-hoc test. Interactions between different treatments (i.e. combination of drugs) were evaluated using factorial ANOVA test.
Baclofen caused a body weight loss of 3.2%, which was statistically non-significant. […] The doses shown in FIG. 1 were administered per os twice daily. The results are shown as mean±SE of percent vehicle-corrected weight loss. There were no statistical differences between the other three groups. (Number of animals: n=8 per group, except the memantine group, where n=7.)
We have also tested the combination of phentermine and baclofen. In the study investigating the effects of 2.5 mg/kg phentermine and 2 mg/kg baclofen, both drugs decreased the body weight moderately (by 5.4% and 3.6%, respectively). […] There was no significant difference between the groups (including the vehicle group as well). […] Data in FIG. 3 are presented as mean±SE of percent vehicle-corrected weight loss.

Data set [2] is described as follows: rotarod test in mice. The settings on record: male, NMRI, mouse, in vivo, po. The source says:
The rotarod test is a widely used simple and objective method to detect the side effects affecting motor function in rodents. This method is also capable for sensitive detection of a central muscle relaxant effect, which is a pharmacological feature of both memantine and baclofen (Farkas et al. J. Pharmacol. Toxicol. Methods 52:264-273 2005). However, other CNS side effects (e.g. sleepiness, disturbances in coordination) also impair rotarod performance. Therefore this method was used to assess liability of the combination memantine and baclofen to produce unwanted side effects.
Mice were placed on a rod rotating with a constant speed of 12 rpm. After training, i.e. after habituation to the rotarod three times for 120 seconds on the previous day, the mice are usually able to run on the rod for 120 seconds without falling down. Immediately before the treatment with the test compounds, the mice were tested and only those able to stay on the rod for 120 seconds were involved to the experiment. Test compounds were dissolved in distilled water (vehicle) and administered orally to groups of ten male NMRI mice (20-24 g). One group was treated with vehicle in each experimental session. […] We calculated the mean latency to fall in each group and the percent change relative to the latency in the vehicle group. […]

The conditions of data set [3]: recommended dosing regimen; cited from earlier work.
For data set [4] the following is noted: dose gradually increased to 20 mg/day, 16 obese binge eater patients; cited from earlier work.
Data set [5] in a line: spontaneous horizontal motor activity of mice (LABORAS). The format is in vivo. The settings on record: 12-hour light phase, C57B16J mice. The source says: NMDA receptor antagonists are known to cause dose-dependent behavioral activation in rodents, which is manifested in increased locomotor activity (Sukhanov et al. Behav. Pharmacol. 15:263-271 2004). This behavior may correspond to side effects observed in the clinical practice, such as agitation and restlessness, which are rarely seen with memantine. We have studied the modulating effect of baclofen on the locomotor activity increasing effect of memantine when administered to mice in combination. Groups of male C57B16J mice (25-32 g; Wobe-Harlan, Hungary; 8-10 mice/group) were treated orally with 2 mg/kg baclofen, 2.5 mg/kg memantine or their combination or vehicle (distilled water) twice daily during the light phase of diurnal light-dark cycle. After one day of habituation, the activity of the animals was recorded continuously for 24 hours on the first and 14th day of treatment using an automated behavioral activity measurement system (LABORAS, Metris, Netherlands). However, only the data from the light phase (12 hours) are shown. The animals were housed individually during the whole experiment in their home cages, which enabled the activity recording as well. The mechanical vibrations and gravity related static signals evoked by the movement of the animals were transformed to an electrical signal by the system, and these recorded signals were evaluated off-line by a computer algorithm (Quinn et al. J. Neurosci. Methods 130:83-92 2003). The behavior of the mice was categorized by the software as locomotor activity, immobility, climbing and grooming. […] Statistical analysis was performed using ANOVA followed by Tukey's post hoc test. The statistical significance of effects of drug treatments was calculated compared to vehicle and also compared to other drug-treated groups.

For data set [6] the following is noted: cited from earlier work.
The conditions of data set [7]: 30 mg/day, 12 weeks, cited from earlier work.
The conditions of data set [8]: targeted dose 60 mg/day, within 10 weeks, binge eating patients; cited from earlier work.

For `CC12CC3CC(C)(C1)CC(N)(C3)C2` [memantine], in data set [1] (Study 1, first experiment, 2.5 mg/kg memantine per os twice daily), the “vehicle-corrected body weight loss” value was found to be 0.1%. In addition, the ED50 at 60 min in data set [2] was 16.1 ± 1.7 mg/kg. Further, in data set [3], the “side effect rate: dizziness” value is on record as 0.8%, the “side effect rate: nausea” value is reported as 0.9%, the “side effect rate: restlessness” value is reported as 1.3% and the “side effect rate: tiredness” value is recorded as 0.4%. For the same molecule, the “effect on binge episodes and body weight” value in data set [4] is “decreased the number of binge episodes but not the body weight”. Further, the “horizontal motor activity vs vehicle” value in data set [5] (2.5 mg/kg memantine orally twice daily, 14th day of treatment) is on record as “statistically significantly (p<0.05) increased”. The “horizontal motor activity vs vehicle” value in data set [5] (2.5 mg/kg memantine orally twice daily, first day of treatment) is “did not reach statistical significance”.
As for `C[C@H]1CNCCc2ccc(Cl)cc21` [lorcaserin], the figures for the “weight loss relative to baseline” value in data set [6] (after 1-year-long treatment) and in data set [6] (at 12 weeks) were 5.8% and 3.5-4%, respectively.
For `CC(C)(N)Cc1ccccc1` [phentermine], the “vehicle-corrected body weight loss” value in data set [1] (Study 2, 2.5 mg/kg phentermine per os twice daily) is reported as 5.4%.
As to `NCC(CC(=O)O)c1ccc(Cl)cc1` (racemic) [baclofen], the “vehicle-corrected body weight loss” value was found to be 3.2% in data set [1] (Study 1, first experiment, 2 mg/kg baclofen per os twice daily) and 3.6% in data set [1] (Study 2, 2 mg/kg baclofen per os twice daily). In data set [2], the ED50 at 60 min is 18.3 ± 3.3 mg/kg. The “mean body weight loss” value in data set [7] (10 obese patients) is on record as 1.7%. Also, in data set [7], the “participants (out of 10) who lost more than 5% body weight” value is “one”. The “mean body weight increase” value in data set [8] is 0.9 kg. The “horizontal motor activity vs vehicle” value in data set [5] (2 mg/kg baclofen orally twice daily, 14th day of treatment) was “neither baclofen alone, nor the combination altered the motor activity”; in data set [5] (2 mg/kg baclofen orally twice daily, first day of treatment), “neither baclofen alone, nor the combination altered the motor activity”.
